Data on five compounds can be found in patent US7517857B2, “Immune-modulating peptide” (POSCO, priority 2002, dated 2009).

Where a SMILES comes first, the peptide text is derived from it. Where no end group is shown, it is not given here. [ ]: non-standard residue; d: D form.

For assay [1], the target named is T1, FPRL1 (Homo sapiens, UniProt P25090).
T1 construct: expressed in transfected cells; host or cells: RBL-2H3 (rat basophilic leukemia) cells, G418-selected
T1 sequence (P25090 1-351): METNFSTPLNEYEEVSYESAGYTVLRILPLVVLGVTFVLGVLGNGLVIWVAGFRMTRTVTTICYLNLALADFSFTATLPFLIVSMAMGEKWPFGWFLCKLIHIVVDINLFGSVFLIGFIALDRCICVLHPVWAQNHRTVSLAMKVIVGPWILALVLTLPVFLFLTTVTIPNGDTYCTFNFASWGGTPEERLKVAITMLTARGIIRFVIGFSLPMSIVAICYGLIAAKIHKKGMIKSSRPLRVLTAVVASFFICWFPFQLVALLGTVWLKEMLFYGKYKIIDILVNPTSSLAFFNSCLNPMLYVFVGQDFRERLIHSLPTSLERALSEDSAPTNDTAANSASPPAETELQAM
The assay is described as follows: Displacement of 125I-labeled WKYMVm binding to FPRL1 (FPRL1-expressing RBL-2H3 cells). The following applies: FIG. 2B. As for the experimental part:
From the finding that some of the peptides (WKGMVm (SEQ ID NO: 1), WKRMVm (SEQ ID NO: 11), D-Met^6 substituted peptides) could not induce a cytosolic calcium increase, it was checked whether the peptides can bind to FPR or not. Displacement of ^125I-labeled WKYMVm binding to FPR or FPRL1 by the peptides was monitored. FPR-expressing RBL-2H3 cells were incubated with [^125I] WKYMVm in the absence or presence of increasing amounts of unlabeled WKYMVm or the peptides of SEQ ID NOs: 1 to 24.
A ligand binding analysis was performed as modified from the previous report (16). The radioiodinated WKYMVm (^125I-labeled) was purchased from NEN Lifesciences (Boston, Mass.). Briefly, FPR- or FPRL1-expressing RBL-2H3 cells were seeded into 1×10^5 cells per well of a 24-well plate and cultured overnight. After blocking the cells with a blocking buffer (33 mM HEPES, pH 7.5, 0.1% BSA in RPMI) for 2 hr, a single concentration of ^125I-labeled WKYMVm was added to cells with a binding buffer (PBS containing 0.1% BSA) in the absence or presence of 50 μM unlabelled peptides and incubated for 3 hr at 4° C. with continuous shaking. Then the samples were washed 5 times with ice-cold binding buffer, and 200 μl of lysis buffer (20 mM Tris, pH 7.5, 1% Triton X-100) was added to each well. After 20 min of lysis at room temperature, the lysates were collected. Bound ^125I-labeled WKYMVm was measured for radioactivity for a γ-ray counter.
(In general: In a radioligand displacement assay an active substance lowers the binding of a labelled ligand.)

Assay [2] deals with T2, FPR (Homo sapiens, UniProt P21462).
T2 construct: expressed in transfected cells; host or cells: RBL-2H3 (rat basophilic leukemia) cells, G418-selected
T2 sequence (P21462 1-350): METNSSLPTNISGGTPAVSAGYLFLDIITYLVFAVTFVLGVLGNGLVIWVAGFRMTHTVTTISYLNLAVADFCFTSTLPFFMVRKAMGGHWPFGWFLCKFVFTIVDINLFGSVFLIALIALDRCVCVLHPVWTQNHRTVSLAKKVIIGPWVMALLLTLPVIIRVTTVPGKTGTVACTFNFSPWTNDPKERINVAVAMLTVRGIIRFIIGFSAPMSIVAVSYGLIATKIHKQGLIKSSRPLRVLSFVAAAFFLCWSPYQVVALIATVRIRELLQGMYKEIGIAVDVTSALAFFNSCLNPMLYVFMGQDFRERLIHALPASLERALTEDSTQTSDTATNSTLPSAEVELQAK
The assay is described as follows: Chemotaxis of FPR-expressing RBL-2H3 cells (modified Boyden chamber). Type of assay: cell-based. Conditions: FPR-expressing RBL-2H3 cells; various concentrations. Here is the method: (§1) Chemotaxis assays were performed using multiwell chambers (modified Boyden chamber assay) (Neuroprobe Inc., Gaithersburg, Md.) (18). Briefly, polycarbonate filters (8 μm pore size) were precoated with 50 μg/ml of rat type I collagen (Collaborative Biomedicals) in a HEPES-buffered RPMI 1640 medium. A dry coated filter was placed on a 96-well chamber containing different concentrations of peptides. RBL-2H3 cells expressing FPR or FPRL1 were suspended in RPMI at a concentration of 1×10^6 cells/ml of serum-free RPMI, and 25 μl of the suspension were placed onto the upper well of the 96-well chemotaxis chamber. After incubation for 4 hours at 37° C., non-migrated cells were removed by scraping them out, and cells that migrated across the filter were dehydrated, fixed, and stained with hematoxylin (Sigma, St. Louis, Mo.). The stained cells in five randomly chosen high power fields (HPF) (400×) in that well were then counted. […] The numbers of migrated cells were determined by counting them in a high power field (400×). The Data are presented as means ±SE of three independent experiments each performed in duplicate. The effect of the peptides of the present invention on cellular chemotaxis in FPR- or FPRL1-expressing RBL-2H3 cells was measured. Various concentrations of each peptide were used for the chemotaxis assay with FPR- or FPRL1-expressing RBL-2H3 cells. The numbers of migrated cells were determined by counting them in a high power field (400×). The Data are presented as means ±SE of two independent experiments each performed in duplicates.

The target in assay [3] is T1, FPRL1. The assay is described as follows: Chemotaxis of FPRL1-expressing RBL-2H3 cells (modified Boyden chamber). Type of assay: cell-based. The following applies: FPRL1-expressing RBL-2H3 cells; various concentrations. As for the experimental part:
as §1

Consider `CSCC[C@H](NC(=O)CNC(=O)[C@H](CCCCN)NC(=O)[C@@H](N)Cc1c[nH]c2ccccc12)C(=O)N[C@H](C(=O)N[C@H](CCSC)C(N)=O)C(C)C` [WKGMVm-NH2, Trp-Lys-Gly-Met-Val-D-Met-NH2] (H-WKGMV[dM]-NH2; N-terminus assumed), for which the “inhibition of [^125I] WKYMVm binding” value in assay [1] is “inhibited binding of [^125I] WKYMVm in a concentration-dependent manner”. The “cellular chemotaxis” value in assay [2] was “induced cellular chemotaxis”; in assay [3], “induced cellular chemotaxis showing concentration-dependency”.

With `CSCC[C@H](NC(=O)[C@H](CCCNC(=N)N)NC(=O)[C@H](CCCCN)NC(=O)[C@@H](N)Cc1c[nH]c2ccccc12)C(=O)N[C@H](C(=O)N[C@H](CCSC)C(N)=O)C(C)C` [WKRMVm-NH2, Trp-Lys-Arg-Met-Val-D-Met-NH2] (H-WKRMV[dM]-NH2; N-terminus assumed), the “inhibition of [^125I] WKYMVm binding” value in assay [1] is “inhibited binding of [^125I] WKYMVm in a concentration-dependent manner”. Besides, the “cellular chemotaxis” value in assay [2] was “induced cellular chemotaxis”; in assay [3] it was “induced cellular chemotaxis showing concentration-dependency”.

Turning to `CSCC[C@H](NC(=O)[C@H](Cc1ccc(O)cc1)NC(=O)[C@H](CCCCN)NC(=O)[C@@H](N)Cc1c[nH]c2ccccc12)C(=O)N[C@H](C(=O)N[C@H](CCSC)C(N)=O)C(C)C` [WKYMVm-NH2, Trp-Lys-Tyr-Met-Val-D-Met-NH2, reference compound], the “inhibition of [^125I] WKYMVm binding” value in assay [1] is “inhibited binding of [^125I] WKYMVm in a concentration-dependent manner”. Besides, the results for the “cellular chemotaxis” value in assay [2] and in assay [3] were “induced cellular chemotaxis” and “induced cellular chemotaxis showing concentration-dependency”, respectively.

Consider “WKYMVE-NH2 [WKYMVE-NH2, Trp-Lys-Tyr-Met-Val-Glu-NH2]”, for which the “cellular chemotaxis” value in assay [2] is given as “induced cellular chemotaxis”; in assay [3] it was “induced cellular chemotaxis showing concentration-dependency”.

On to “WKYMVR-NH2 [WKYMVR-NH2, Trp-Lys-Tyr-Met-Val-Arg-NH2]”, for which the “cellular chemotaxis” value is “induced cellular chemotaxis” in assay [2] and “induced cellular chemotaxis showing concentration-dependency” in assay [3].
